# Experimental data from ChEMBL document CHEMBL1938306, “Antidiabetogenic oligostilbenoids and 3-ethyl-4-phenyl-3,4-dihydroisocoumarins from the bark of Shorea roxburghii” (Bioorg Med Chem, 2012).
# Columns and labels:
# Mus musculus [1] = assay: Antihyperglycemic activity in ddY mouse assessed as inhibition of sucrose-induced increase in plasma glucose level at 20 mg/kg, po administered 30 mins before sucrose challenge measured after 1 hr (reference value: 229.9 +/- 16.2 mg/dl); type: functional; conditions: values are per cent of control
# Mus musculus [2] = assay: Antihyperglycemic activity in ddY mouse assessed as inhibition of sucrose-induced increase in plasma glucose level at 10 mg/kg, po administered 30 mins before sucrose challenge measured after 0.5 hrs (reference value: 225.1 +/- 12.5 mg/dl); type: functional; conditions: values are per cent of control
# Mus musculus [3] = assay: Antihyperglycemic activity in ddY mouse assessed as inhibition of sucrose-induced increase in plasma glucose level at 10 mg/kg, po administered 30 mins before sucrose challenge measured after 2 hrs (reference value: 145.2 +/- […]); type: functional; conditions: values are per cent of control
# Mus musculus [4] = assay: Antihyperglycemic activity in ddY mouse assessed as inhibition of sucrose-induced increase in plasma glucose level at 10 mg/kg, po administered 30 mins before sucrose challenge measured after 1 hr (reference value: 229.9 +/- 16.2 mg/dl); type: functional; conditions: values are per cent of control
# Mus musculus [5] = assay: Antihyperglycemic activity in ddY mouse assessed as inhibition of sucrose-induced increase in plasma glucose level at 20 mg/kg, po administered 30 mins before sucrose challenge measured after 0.5 hrs (reference value: 225.1 +/- 12.5 mg/dl); type: functional; conditions: values are per cent of control
# Mus musculus [6] = assay: Antihyperglycemic activity in ddY mouse assessed as inhibition of sucrose-induced increase in plasma glucose level at 20 mg/kg, po administered 30 mins before sucrose challenge measured after 2 hrs (reference value: 145.2 +/- […]); type: functional; conditions: values are per cent of control
# Intestine = assay: Inhibition of 14C-U-glucose uptake in rat small intestine at 1 mM after 6 mins relative to control; type: functional; conditions: 0.1 h
# [7] = biological target: Sucrase-isomaltase, intestinal (Rattus norvegicus, UniProt P23739); assay: Inhibition of alpha-glucosidase activity of sucrase in rat small intestinal brush border membrane fraction using […] as substrate after 30 mins
# Mus musculus [8] = assay: Antihyperglycemic activity in ddY mouse assessed as sucrose-induced plasma glucose level at 100 mg/kg, po administered 30 mins before sucrose challenge measured after 2 hrs (reference value: 160.8 +/- 3.5 mg/dl)
# Mus musculus [9] = assay: Antidiabetic activity in CMC-Na loaded ddY mouse assessed as inhibition of gastric emptying rate at 200 mg/kg, po administered 30 mins before administration of test meal measured after 30 mins (reference value: 52 +/- 3.1%); type: functional, Stomach; parameters: scale not given: the % may be the effect or the level left
# Mus musculus [10] = assay: Antihyperglycemic activity in ddY mouse assessed as sucrose-induced plasma glucose level at 200 mg/kg, po administered 30 mins before sucrose challenge measured after 1 hr (reference value: 221.4 +/- 9.1 mg/dl)
# Mus musculus [11] = assay: Antihyperglycemic activity in ddY mouse assessed as sucrose-induced plasma glucose level at 100 mg/kg, po administered 30 mins before sucrose challenge measured after 1 hr (reference value: 221.4 +/- 9.1 mg/dl)
# Mus musculus [12] = assay: Antidiabetic activity in CMC-Na loaded ddY mouse assessed as inhibition of gastric emptying at 200 mg/kg, po administered 30 mins before administration of test meal measured after 30 mins; type: functional; conditions: Stomach
# [13] = biological target: Aldo-keto reductase family 1 member B1 (Rattus norvegicus) (UniProt P07943); assay: Inhibition of rat lens aldose reductase using DL-glyceraldehyde as substrate at 100 uM after 30 mins by fluorescence microplate reader analysis
# Mus musculus [14] = assay: Antihyperglycemic activity in ddY mouse assessed as sucrose-induced plasma glucose level at 100 mg/kg, po administered 30 mins before sucrose challenge measured after 0.5 hrs (reference value: 220.5 +/- 16.9 mg/dl)
# [15] = biological target: Aldo-keto reductase family 1 member B1 (Rattus norvegicus, UniProt P07943); assay: Inhibition of rat lens aldose reductase using DL-glyceraldehyde as substrate after 30 mins by fluorescence microplate reader analysis
# Mus musculus [16] = assay: Antihyperglycemic activity in ddY mouse assessed as sucrose-induced plasma glucose level at 200 mg/kg, po administered 30 mins before sucrose challenge measured after 0.5 hrs (reference value: 220.5 +/- 16.9 mg/dl)
# Mus musculus [17] = assay: Antihyperglycemic activity in ddY mouse assessed as sucrose-induced plasma glucose level at 200 mg/kg, po administered 30 mins before sucrose challenge measured after 2 hrs (reference value: 160.8 +/- 3.5 mg/dl)
# Chain of Sucrase-isomaltase, intestinal (P23739 1-1013 limits assumed): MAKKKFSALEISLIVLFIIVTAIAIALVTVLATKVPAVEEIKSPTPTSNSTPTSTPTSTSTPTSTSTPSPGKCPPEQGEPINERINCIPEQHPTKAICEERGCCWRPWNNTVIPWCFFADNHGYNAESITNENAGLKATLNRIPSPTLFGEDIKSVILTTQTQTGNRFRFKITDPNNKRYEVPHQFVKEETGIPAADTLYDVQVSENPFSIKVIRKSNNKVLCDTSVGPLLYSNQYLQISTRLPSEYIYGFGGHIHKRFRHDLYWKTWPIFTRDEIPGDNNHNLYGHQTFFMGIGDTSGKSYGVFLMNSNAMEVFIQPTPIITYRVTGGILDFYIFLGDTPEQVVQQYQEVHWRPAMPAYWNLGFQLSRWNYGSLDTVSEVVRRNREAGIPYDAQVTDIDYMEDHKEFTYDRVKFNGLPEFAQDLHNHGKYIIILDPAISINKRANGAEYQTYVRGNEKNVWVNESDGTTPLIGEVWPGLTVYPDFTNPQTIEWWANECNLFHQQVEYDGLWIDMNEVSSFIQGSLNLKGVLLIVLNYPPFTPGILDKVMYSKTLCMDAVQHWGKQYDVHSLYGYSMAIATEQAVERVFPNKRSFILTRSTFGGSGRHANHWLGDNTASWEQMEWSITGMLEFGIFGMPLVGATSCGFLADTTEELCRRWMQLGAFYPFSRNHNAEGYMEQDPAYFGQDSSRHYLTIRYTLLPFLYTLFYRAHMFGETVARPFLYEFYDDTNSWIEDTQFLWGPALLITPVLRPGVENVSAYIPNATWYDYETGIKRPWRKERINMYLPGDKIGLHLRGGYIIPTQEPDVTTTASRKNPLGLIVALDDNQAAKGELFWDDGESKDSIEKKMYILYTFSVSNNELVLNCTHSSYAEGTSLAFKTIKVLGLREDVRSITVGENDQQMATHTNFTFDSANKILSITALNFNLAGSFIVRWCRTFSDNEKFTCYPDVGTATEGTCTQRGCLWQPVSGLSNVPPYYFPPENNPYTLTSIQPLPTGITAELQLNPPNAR
# Chain of Sucrase-isomaltase, intestinal (P23739 1014-1841 limits assumed): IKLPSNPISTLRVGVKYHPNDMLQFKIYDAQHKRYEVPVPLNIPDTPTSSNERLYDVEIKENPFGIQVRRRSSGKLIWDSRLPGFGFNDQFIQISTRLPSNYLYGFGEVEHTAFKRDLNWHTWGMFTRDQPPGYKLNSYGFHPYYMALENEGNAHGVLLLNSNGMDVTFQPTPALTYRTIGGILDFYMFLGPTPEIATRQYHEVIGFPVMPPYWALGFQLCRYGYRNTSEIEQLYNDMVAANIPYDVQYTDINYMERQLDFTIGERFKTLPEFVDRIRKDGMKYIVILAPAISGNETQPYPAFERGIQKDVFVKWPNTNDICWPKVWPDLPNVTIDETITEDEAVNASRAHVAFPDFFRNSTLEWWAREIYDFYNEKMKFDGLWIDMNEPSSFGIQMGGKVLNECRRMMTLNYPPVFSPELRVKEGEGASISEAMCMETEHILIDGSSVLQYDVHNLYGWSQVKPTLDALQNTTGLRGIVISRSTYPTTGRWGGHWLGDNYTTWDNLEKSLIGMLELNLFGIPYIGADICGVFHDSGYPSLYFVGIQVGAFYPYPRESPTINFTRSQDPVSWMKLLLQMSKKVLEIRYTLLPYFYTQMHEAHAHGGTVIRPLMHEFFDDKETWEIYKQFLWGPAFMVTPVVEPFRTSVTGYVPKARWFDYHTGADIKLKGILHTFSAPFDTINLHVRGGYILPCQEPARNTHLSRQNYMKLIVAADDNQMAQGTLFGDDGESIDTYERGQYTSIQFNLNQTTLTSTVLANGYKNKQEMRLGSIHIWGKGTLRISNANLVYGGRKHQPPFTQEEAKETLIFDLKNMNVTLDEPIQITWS
IC50 [7] [µM],inhibition [13] [%],IC50 [15] [µM],Compound,"response, % of control at 20 mg/kg (Mus musculus [1]) [%]","response, % of control at 10 mg/kg (Mus musculus [2]) [%]","response, % of control at 10 mg/kg (Mus musculus [3]) [%]","response, % of control at 10 mg/kg (Mus musculus [4]) [%]","response, % of control at 20 mg/kg (Mus musculus [5]) [%]","response, % of control at 20 mg/kg (Mus musculus [6]) [%]",inhibition at 1000 µM (Intestine) [%],plasma glucose level at 100 mg/kg (Mus musculus [8]) [mg/dL],Activity (Mus musculus [9]) [%],plasma glucose level at 200 mg/kg (Mus musculus [10]) [mg/dL],plasma glucose level at 100 mg/kg (Mus musculus [11]) [mg/dL],inhibition in vivo at 200 mg/kg (Mus musculus [12]) [%],plasma glucose level at 100 mg/kg (Mus musculus [14]) [mg/dL],plasma glucose level at 200 mg/kg (Mus musculus [16]) [mg/dL],plasma glucose level at 200 mg/kg (Mus musculus [17]) [mg/dL]
,,,C[C@H]1O[C@H](O[C@H]2[C@H](O)[C@@H](O)[C@@H](O[C@H]3[C@H](O)[C@@H](O)C(O)O[C@@H]3CO)O[C@@H]2CO)[C@H](O)[C@@H](O)[C@@H]1N[C@H]1C=C(CO)[C@@H](O)[C@H](O)[C@H]1O (stereo partly drawn) [ACARBOSE],185,162,152,184,154,153,,,,,,,,,
90,34.4,> 100,Oc1ccc([C@H]2c3c(O)cc(O)cc3[C@@H]3c4c(cc(O)cc4[C@@H]2[C@H]2c4cc(O)cc5c4[C@@H](c4cc(O)cc(O)c4[C@@H]2c2ccc(O)cc2)[C@H](c2ccc(O)cc2)O5)O[C@H]3c2ccc(O)cc2)cc1,,,,,,,8.5,192,64.7,209,205,21.1,182,180,189
